Activity calls are given as the source filed them.

One assay deals with Hexokinase-1 (Homo sapiens, UniProt P19367). The assay can be described thus: hexokinase 1 activity inhibitors, potency – biochemical, set 2, resazurin fluorescence coupled readout, selectivity assay for HKDC1 inhibitor project, SAR follow-up (AID 588356). The assay is classed as functional. Background: The colour change of resazurin is a common sign of viable cells or microbes.

The target in the next assay is Hexokinase HKDC1 (Homo sapiens, UniProt Q2TB90). The assay can be described thus: analog inhibition of human HKDC1 activity – biochemical, set 2, SAR follow-up (AID 588355). The assay is classed as functional.
The target of assay [1] is T1, Corticotropin-releasing factor receptor 2/Corticotropin-releasing factor-binding protein (Homo sapiens, UniProt P24387+Q13324).
T1 sequence (Q13324 whole entry): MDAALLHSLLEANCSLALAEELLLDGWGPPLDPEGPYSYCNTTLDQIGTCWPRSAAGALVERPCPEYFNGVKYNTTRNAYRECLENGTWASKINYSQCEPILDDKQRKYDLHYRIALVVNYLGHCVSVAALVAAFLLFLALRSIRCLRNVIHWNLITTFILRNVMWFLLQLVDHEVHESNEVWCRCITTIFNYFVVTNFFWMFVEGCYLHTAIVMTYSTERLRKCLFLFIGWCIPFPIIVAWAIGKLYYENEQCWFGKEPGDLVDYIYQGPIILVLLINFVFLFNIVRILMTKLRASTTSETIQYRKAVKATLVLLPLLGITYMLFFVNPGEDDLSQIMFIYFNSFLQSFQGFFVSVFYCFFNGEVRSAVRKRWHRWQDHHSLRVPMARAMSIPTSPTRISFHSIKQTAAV
T1 sequence (P24387 whole entry): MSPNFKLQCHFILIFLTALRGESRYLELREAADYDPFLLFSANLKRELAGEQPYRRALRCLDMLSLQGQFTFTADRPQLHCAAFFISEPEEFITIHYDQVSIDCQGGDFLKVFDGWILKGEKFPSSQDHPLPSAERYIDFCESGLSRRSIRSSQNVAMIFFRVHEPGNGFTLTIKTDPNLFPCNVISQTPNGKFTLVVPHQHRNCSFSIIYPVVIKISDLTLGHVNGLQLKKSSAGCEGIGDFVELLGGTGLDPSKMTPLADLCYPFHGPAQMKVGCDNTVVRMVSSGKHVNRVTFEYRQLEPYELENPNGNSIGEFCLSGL
The assay can be described thus: activators of CRF receptor 2 with binding protein – uHTS hits, confirmation (AID 602473). The assay is classed as functional. The settings on record: read-out: EC50_Mean.

The next assay addresses Keap1/Nrf2 (Homo sapiens, UniProt Q14145). The assay is described as follows: disruptors of Keap1 binding to Nrf2 peptide – biochemical, fluorescence polarization, cherry-picked samples, dose response (AID 588683).
The nature of assay [2]: toxicity toward cultured mammalian cells – cell-based, plate reader, cherry-pick samples, cytotoxicity control, dose response (AID 504397). The assay is classed as functional.
The next assay addresses CAAX prenyl protease 2 (Saccharomyces cerevisiae S288c, UniProt Q03530). The assay can be described thus: inhibition of Rce1p peptide cleavage – biochemical, plate reader, dry powder retest, dose response (AID 588851).
The target of assay [3] is Benomyl/methotrexate resistance protein (Candida albicans, UniProt P28873). The assay is described as follows: Candida albicans Mdr1 pump blockade titration – singleplex, Cherry Pick2 set, dose response (AID 623992). The settings on record: read-out: EC50_MICROM. The class given is functional.
For assay [4], the target named is Multidrug resistance protein CDR1 (Candida albicans, UniProt P43071). The assay is described as follows: inhibition of Nile Red efflux via Candida CDR1 – S. cerevisiae AD1-8u, singleplex, Cherry Pick1 hits, dose response (AID 588606). The assay is classed as functional.
For assay [5], the system named is Jurkat. The assay is described as follows: blockers of NF-kB activation in T cells – Jurkat, luciferase reporter, luminescence, B- and T-cell, dose response (AID 489004).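 Also: NF-kB luciferase reporter Jurkat cells stimulated with PMA plus ionomycin.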 The assay is classed as functional, cell-based. The settings on record: Homo sapiens. Background: A reporter such as luciferase makes a cellular process visible.
A short description of assay [6]: HEK-293T viability loss, compound-treated – cell-based, uHTS hits, cytotoxicity control for B/T-cell NF-kB inhibitor project, dose response (AID 489019).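 Also: IC50 reflects cytotoxicity as loss of cell viability.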 The class given is functional.
In assay [7] the target is Glycogen synthase kinase-3 alpha (Homo sapiens, UniProt P49840). The assay is described as follows: Inhibition of Human GSK-3 alpha Activity Measured in Biochemical System Using Microfluidics - 2063-06_Inhibitor_Dose_DryPowder_Activity. [Related pubchem assays (depositor defined):AID2709].
Assay [8] deals with Glycogen synthase kinase-3 beta (Homo sapiens, UniProt P49841). The assay is described as follows: Inhibition of Human GSK-3 beta Activity Measured in Biochemical System Using Microfluidics - 2063-05_Inhibitor_Dose_DryPowder_Activity. [Related pubchem assays (depositor defined):AID2709].
Assay [9] concerns the target Serine/threonine-protein phosphatase (Candida dubliniensis (strain CD36 / CBS 7987 / NCPF 3949 / NRRLY-17841) (Yeast), UniProt B9W6M3). The assay is described as follows: blockers of CaCl2-induced CDRE-lacZ signaling – S. cerevisiae, luminescence, secondary, dose response (AID 2388).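 Also: yeast reporter cells carrying a calcineurin-responsive lacZ construct stimulated with calcium chloride; luminescent beta-galactosidase reporter signal in whole cells rather than isolated phosphatase activity; potency for inhibition where a drop in reporter signal means calcineurin blockade.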 The class given is functional, cell-based.
The target in assay [10] is ATP-dependent molecular chaperone HSP82 (Candida albicans (strain WO-1) (Yeast), UniProt C4YTQ8). The assay is described as follows: steroid-induced GRE reporter decrease in yeast – S. cerevisiae, luminescence, Hsp90 inhibitor project, dose response (AID 2400).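 Also: beta-galactosidase luminescence from glucocorticoid response element reporter as proxy for Hsp90 function; inhibitor potency where signal loss means Hsp90 inhibition.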 The assay is classed as functional, cell-based.
Assay [11] can be described thus: NIH-3T3 fibroblast cytotoxicity, dose response, cytotoxicity control, cell-based, fluorescence, Alamar Blue, secondary assay (AID 2327).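 Also: NIH-3T3 mouse fibroblasts cultured with fluconazole at 8 µg/mL.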 The assay is classed as functional.
Assay [12] in a line: fluconazole-exposed Candida albicans growth modulators – fluorescence, retest, confirmation (AID 2467). The class given is functional, cell-based.
In assay [13] the target is Dual specificity protein kinase CLK1 (Homo sapiens, UniProt P49759). The assay can be described thus: inhibition of human CLK1 activity – biochemical, cherry-picked samples, selectivity assay for Dyrk1A inhibitor project, dose response (AID 588811).
For assay [14], the system named is HEK293. The assay is described as follows: SAR Analysis of small molecule inhibitors of T-cell specific antigen receptor-induced NF-kB activation in a HEK-293T cell line using a luminescence assay - Set 2. [Related pubchem assays (depositor defined):AID435003, AID435012, AID489026]. The class given is functional, cell-based. The settings on record: Homo sapiens.

Assay [15] is described as follows: Luminescence Cell-Based Dose Response HTS to Identify Inhibitors of 5'UTR Stem-Loop Driven Prion Protein mRNA Translation in H4 Neuroglioblastoma Cells. [Related pubchem assays: 1827 (Project Summary), 1813 (Primary HTS)]. The class given is functional.
Assay [16] relates to Jurkat. The assay is described as follows: SAR Analysis of small molecule inhibitors of T-cell specific antigen receptor-induced NF-kB activation in a Jurkat cell line using a luminescence assay - Set 2. [Related pubchem assays (depositor defined):AID435003, AID435012, AID465]. The settings on record: Homo sapiens. The assay is classed as functional, cell-based.
A further assay deals with Vero. The assay is described as follows: cells. The settings on record: Chlorocebus sabaeus. The class given is functional.
In the next assay the test system is INS1. The assay can be described thus: INS-1E survival protection against cytokine death – cell-based, luminescence, retest, dose response (AID 449756).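 Also: cell death triggered by IL-1 beta plus TNF-alpha plus IFN-gamma mixture; protective hits raise ATP signal compared with cytokine alone wells.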 The settings on record: Rattus norvegicus. The assay is classed as functional.
The test system of assay [17] is HEK293. The assay can be described thus: HEK293T cell viability loss, resazurin readout – resazurin fluorescence, cytotoxicity control for NF-kB activator project, SAR follow-up (AID 493251). The class given is functional, cell-based. The settings on record: Homo sapiens.
Assay [18] in a line: luciferase reporter signal suppression in cells – H4 neuroglioma cells, luminescence, dose response (AID 1990). The assay is classed as functional, cell-based.
Assay [19] in a line: alpha-synuclein stem-loop luciferase translation blockers – H4 neuroglioma cells, luminescence, confirmation (AID 1988). The class given is functional, cell-based.

Sequence of Hexokinase HKDC1 (Q2TB90 whole entry): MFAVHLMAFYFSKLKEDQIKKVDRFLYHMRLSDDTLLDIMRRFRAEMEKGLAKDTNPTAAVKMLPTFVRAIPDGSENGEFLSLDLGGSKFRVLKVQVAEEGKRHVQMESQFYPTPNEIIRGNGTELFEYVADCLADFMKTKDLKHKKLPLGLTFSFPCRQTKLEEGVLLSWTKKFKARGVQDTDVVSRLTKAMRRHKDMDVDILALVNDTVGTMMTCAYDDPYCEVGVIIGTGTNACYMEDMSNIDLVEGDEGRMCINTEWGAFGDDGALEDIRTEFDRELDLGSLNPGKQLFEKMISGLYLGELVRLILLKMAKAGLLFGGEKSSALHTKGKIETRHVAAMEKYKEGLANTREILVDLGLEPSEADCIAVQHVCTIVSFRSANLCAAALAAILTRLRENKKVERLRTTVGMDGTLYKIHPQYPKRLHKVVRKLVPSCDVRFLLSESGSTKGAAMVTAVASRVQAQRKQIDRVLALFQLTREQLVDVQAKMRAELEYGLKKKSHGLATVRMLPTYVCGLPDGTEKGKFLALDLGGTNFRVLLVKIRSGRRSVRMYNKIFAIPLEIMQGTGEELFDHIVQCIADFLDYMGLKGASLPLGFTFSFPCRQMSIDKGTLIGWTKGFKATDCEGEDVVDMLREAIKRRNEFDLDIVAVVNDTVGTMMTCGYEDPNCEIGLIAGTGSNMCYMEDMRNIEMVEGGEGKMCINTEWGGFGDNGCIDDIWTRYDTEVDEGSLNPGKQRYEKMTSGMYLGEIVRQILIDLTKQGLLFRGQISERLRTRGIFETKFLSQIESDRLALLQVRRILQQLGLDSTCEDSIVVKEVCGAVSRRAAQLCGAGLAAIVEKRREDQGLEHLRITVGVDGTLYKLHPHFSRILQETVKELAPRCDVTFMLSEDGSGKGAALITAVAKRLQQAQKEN
Sequence of Glycogen synthase kinase-3 beta (P49841 whole entry): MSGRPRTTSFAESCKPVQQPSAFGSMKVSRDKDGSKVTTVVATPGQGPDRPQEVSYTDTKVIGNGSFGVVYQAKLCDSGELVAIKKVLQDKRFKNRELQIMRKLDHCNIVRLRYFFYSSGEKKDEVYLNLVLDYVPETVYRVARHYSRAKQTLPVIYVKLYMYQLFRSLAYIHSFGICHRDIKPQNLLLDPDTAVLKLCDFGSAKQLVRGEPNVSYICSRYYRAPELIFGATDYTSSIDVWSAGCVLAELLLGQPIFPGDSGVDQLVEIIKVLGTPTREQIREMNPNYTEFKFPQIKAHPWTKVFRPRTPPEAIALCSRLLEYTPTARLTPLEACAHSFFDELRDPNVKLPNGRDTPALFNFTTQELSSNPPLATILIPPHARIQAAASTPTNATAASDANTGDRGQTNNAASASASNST
Sequence of ATP-dependent molecular chaperone HSP82 (C4YTQ8 whole entry): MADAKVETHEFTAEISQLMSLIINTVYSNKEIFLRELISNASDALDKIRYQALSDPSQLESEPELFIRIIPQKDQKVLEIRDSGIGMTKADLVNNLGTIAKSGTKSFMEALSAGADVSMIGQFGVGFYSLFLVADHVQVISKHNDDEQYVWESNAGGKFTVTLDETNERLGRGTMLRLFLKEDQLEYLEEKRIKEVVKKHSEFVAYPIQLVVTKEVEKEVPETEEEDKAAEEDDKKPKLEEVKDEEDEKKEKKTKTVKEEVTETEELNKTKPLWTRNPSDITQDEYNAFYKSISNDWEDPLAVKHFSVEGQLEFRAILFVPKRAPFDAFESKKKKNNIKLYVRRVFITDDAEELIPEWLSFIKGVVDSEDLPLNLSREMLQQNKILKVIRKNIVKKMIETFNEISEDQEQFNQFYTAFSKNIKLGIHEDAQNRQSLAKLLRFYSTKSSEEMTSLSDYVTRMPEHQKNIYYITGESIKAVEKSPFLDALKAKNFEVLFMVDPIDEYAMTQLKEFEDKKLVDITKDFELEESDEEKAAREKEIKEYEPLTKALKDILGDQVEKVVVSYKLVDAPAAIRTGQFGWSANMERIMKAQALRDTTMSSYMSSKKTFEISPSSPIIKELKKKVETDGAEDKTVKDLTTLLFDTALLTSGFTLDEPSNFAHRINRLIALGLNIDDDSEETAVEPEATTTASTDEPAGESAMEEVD
Sequence of Multidrug resistance protein CDR1 (P43071 whole entry, looked up): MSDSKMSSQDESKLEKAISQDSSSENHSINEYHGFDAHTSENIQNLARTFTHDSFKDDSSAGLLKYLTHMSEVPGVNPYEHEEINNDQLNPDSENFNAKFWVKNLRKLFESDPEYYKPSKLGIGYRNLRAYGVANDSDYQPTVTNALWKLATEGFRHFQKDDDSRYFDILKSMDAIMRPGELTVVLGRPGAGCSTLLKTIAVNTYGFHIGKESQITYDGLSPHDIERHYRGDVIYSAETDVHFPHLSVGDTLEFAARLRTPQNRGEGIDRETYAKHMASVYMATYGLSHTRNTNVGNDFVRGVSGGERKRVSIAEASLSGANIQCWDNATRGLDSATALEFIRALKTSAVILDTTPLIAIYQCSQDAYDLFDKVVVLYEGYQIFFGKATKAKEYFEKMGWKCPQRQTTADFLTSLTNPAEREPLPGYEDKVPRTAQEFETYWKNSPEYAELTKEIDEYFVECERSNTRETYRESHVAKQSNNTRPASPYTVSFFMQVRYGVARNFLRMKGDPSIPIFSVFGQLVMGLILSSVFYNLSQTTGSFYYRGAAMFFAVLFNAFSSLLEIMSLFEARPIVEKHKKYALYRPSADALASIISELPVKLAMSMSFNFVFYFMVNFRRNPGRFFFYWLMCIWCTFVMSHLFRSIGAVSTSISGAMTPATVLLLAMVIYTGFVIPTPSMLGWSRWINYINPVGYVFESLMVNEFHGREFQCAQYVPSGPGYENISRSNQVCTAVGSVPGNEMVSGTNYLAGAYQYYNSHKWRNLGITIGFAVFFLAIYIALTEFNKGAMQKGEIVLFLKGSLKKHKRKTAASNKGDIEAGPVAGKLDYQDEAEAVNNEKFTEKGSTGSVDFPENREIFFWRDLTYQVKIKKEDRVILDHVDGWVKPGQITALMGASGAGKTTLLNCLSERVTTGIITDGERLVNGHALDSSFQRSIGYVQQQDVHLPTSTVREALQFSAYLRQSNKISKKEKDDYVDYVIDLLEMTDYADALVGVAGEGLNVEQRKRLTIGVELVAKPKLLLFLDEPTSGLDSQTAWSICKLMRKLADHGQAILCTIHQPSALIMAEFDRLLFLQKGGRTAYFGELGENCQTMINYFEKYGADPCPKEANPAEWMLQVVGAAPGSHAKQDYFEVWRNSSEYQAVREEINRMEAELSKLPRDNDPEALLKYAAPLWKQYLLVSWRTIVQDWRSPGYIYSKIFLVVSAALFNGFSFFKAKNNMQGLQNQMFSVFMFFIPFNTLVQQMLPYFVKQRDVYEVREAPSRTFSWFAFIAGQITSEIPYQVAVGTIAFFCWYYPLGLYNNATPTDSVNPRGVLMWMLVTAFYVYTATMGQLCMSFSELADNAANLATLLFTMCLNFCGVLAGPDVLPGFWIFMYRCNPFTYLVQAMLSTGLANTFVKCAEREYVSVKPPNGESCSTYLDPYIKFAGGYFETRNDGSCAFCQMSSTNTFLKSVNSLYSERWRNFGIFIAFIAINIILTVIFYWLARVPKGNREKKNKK
Sequence of Dual specificity protein kinase CLK1 (P49759 whole entry): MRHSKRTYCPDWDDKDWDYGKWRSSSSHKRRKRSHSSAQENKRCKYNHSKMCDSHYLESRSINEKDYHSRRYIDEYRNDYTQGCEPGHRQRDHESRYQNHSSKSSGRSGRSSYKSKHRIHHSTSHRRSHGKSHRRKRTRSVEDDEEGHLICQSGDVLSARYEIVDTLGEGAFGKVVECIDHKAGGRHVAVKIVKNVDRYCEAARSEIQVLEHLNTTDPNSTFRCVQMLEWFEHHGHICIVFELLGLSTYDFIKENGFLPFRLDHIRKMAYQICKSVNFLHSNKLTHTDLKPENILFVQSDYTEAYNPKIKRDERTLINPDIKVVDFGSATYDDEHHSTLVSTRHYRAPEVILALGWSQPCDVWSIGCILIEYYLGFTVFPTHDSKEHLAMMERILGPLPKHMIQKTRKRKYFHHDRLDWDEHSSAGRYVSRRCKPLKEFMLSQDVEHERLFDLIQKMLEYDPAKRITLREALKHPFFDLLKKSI
Sequence of Glycogen synthase kinase-3 alpha (P49840 whole entry): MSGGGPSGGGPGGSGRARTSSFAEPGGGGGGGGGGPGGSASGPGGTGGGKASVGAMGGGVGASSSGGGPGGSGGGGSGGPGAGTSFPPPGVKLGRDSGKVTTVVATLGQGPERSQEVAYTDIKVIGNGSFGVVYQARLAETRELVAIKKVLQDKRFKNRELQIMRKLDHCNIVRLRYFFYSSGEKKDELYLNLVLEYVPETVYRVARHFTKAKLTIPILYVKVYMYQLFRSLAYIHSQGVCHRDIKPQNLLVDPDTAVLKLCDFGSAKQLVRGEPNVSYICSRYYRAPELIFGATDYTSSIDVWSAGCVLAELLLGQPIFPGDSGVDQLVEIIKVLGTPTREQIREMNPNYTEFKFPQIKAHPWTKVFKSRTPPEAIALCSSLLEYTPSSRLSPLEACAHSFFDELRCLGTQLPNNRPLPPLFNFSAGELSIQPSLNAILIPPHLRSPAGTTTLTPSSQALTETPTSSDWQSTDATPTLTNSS
Sequence of CAAX prenyl protease 2 (Q03530 whole entry): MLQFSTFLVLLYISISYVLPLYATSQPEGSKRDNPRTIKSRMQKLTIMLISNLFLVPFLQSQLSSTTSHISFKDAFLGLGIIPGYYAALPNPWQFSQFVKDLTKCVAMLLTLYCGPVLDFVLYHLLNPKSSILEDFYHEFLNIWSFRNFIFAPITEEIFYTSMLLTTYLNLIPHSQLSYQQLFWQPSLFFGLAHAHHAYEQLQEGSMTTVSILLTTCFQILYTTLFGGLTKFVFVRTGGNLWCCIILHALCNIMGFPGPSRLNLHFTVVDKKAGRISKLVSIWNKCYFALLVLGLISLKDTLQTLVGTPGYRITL

Usually IC50 stands for the concentration at which inhibition is half-maximal. As for `O=C(O)C(c1ccccc1)N1C(=O)c2ccccc2C1=O` (stereo not given), the IC50 on Hexokinase-1 and at Hexokinase HKDC1 was > 80 µM (inactive) throughout.
One may read the AC50 as the concentration giving half of the maximal activity seen. As to `CCN(CC)S(=O)(=O)c1ccc(C(=O)OCCN2C(=O)c3cccc4c(N5CCOCC5)ccc(c34)C2=O)cc1`, the EC50 in assay [1] is 6.47 µM (active). The AC50 on Keap1/Nrf2 is 13.9 µM (active).
`Cc1cc(N2CCN(C(c3ccccc3)c3ccccc3)CC2)n2ncnc2n1`: the AC50 in [2] is 159 µM (active); at CAAX prenyl protease 2 it was 7.39 µM (active).
In the case of `CCO[C@@H]1OC(C(=O)Nc2ccccc2)=C[C@H](c2ccc(Br)cc2)[C@H]1CCCO`, the EC50 is 25.2 µM (active) in assay [3] and 11.7 µM (active) in assay [4].
With `Cc1cc(Cl)c(S(=O)(=O)N2CCCCCC2)cc1OCC(=O)NC1CCCCC1`, the IC50 (in the assay with Jurkat [5]; in [6]) was > 80 µM (inactive) in each case.
On to `Nc1nc(Nc2cccc(F)c2)nc(NCCO)c1[N+](=O)[O-]`, for which the AC50 was 0.953 µM (active) in [7] and 0.228 µM (active) in [8].
As to `O=[N+]([O-])c1cc(Cl)c2cccnc2c1O`, the EC50 in [9] is > 180 µM (inactive); in [10], 3.67 µM (active); in assay [11], 11.1 µM (active); in assay [12], 0.084 µM (active).
With `CCCNc1ncnc2ccc(-c3ccc4c(c3)OCO4)cc12`, the AC50 in assay [13] was 0.00314 µM (active).
A word on the CC50: it is the concentration that lowers cell viability or growth by half. `CCN1CCN(c2c(Cl)cccc2NC(=O)c2ccc([N+](=O)[O-])o2)CC1`: the values for the IC50 in the assay with HEK293 [14], in the assay with Jurkat [16] and with HEK293 [17] were 17.9 µM (active), 10.6 µM (active) and 18.7 µM (active), respectively. The EC50 in assay [15] was > 120 µM (not active); in assay [18], 10.6 µM (active); in assay [19], 11.1 µM (active). For the same molecule, the CC50 in the assay on Vero is 23.4 µM (active). Moreover, in the assay with INS1, the concentration at half-maximal activity (AC50) was 3.68 µM (active).

Values taken from ChEMBL document CHEMBL1201862, “PubChem BioAssay data set” (2004).
